Assay results taken from PMC9415638, “Discovery of novel thiazolyl-pyrazolines as dual EGFR and VEGFR-2 inhibitors endowed with in vitro antitumor activity towards non-small lung cancer” (Journal of Enzyme Inhibition and Medicinal Chemistry, 2022).

Experiments:
[1] = target: ABL1 (Homo sapiens, UniProt P00519); assay: Kinase selectivity profiling, Z'-LYTE FRET
[2] = target: PKC; assay: Kinase selectivity profiling, Z'-LYTE FRET; details: read-out: IC50 (nM) PKC
[3] = target: AKT1 (Homo sapiens, UniProt P31749); assay: Kinase selectivity profiling, Z'-LYTE FRET
[4] = test system: WI-38 human lung fibroblast cells; assay: MTT cytotoxicity assay on normal cells; type: cell-based; details: for IC50: Homo sapiens, WI-38, normal lung fibroblasts, MTT, 24 h, n = 3, read-out: IC50 (µM) ± SEM WI-38; for Mean tumour selectivity: S. I. (WI-38/A549 and H441)
Method: All chemicals used in this study were analytical or cell-culture grade.
Cytotoxicity was measured using the MTT assay. […] The medium was aspirated and 150 μL DMSO was added to solubilise MTT formazan crystals. The plates were then shaken, and the optical density was determined at 570 nm using an ELISA plate reader (Model 550, Bio-Rad, Hercules, CA). At least three independent experiments were performed.

[5] = test system: A549 cells; assay: Cell cycle analysis by flow cytometry (7AAD); type: cell-based, human; details: A549, 24 h; untreated controls 6.06% and 5.93%
Method: Figure 6. […] (A) Representative cell cycle distribution data are shown by flow cytometric analysis upon incubation with 0 (control), 2.5 or 5 μM of 10b or 10d or with 0 (control), 5 or 20 μM of gefitinib for 24 h. (B) Quantification of cell cycle distribution upon 24 h incubation with 10b or 10d.
(§1) DNA content was measured using 7-aminoactinmycin D (7AAD) (Biotium, Inc., Hayward, CA) staining and is commonly used for cell cycle phase analysis as previously described. Apoptosis was evaluated using the annexin V/propidium iodide (PI) staining kit (BioLegend, San Diego, CA) according to the manufacturer’s instructions and as previously described.

[6] = test system: A549 cells migration; assay: Scratch wound healing assay; type: cell-based, human; details: 36 h, vs control
Method: Figure 5. Effect of compounds 10b and 10d on A549 cells migration. […] Representative images of scratched areas in confluent A549 cell layers.
A549 cells were seeded and incubated in 6-well cell culture plates till reaching confluence. Then, the confluent monolayers were scratched to form a “wound” using a sterile needle. The cells were treated with either vehicle as a control, 10b or 10d for 36 h. The images were recorded at 0 and 36 h to monitor the migration of cells into the wounded area using a light photomicroscope.

[7] = target: EPHB2 (Homo sapiens, UniProt P29323); assay: Kinase selectivity profiling, Z'-LYTE FRET
[8] = test system: H441 lung cancer cells; assay: Anti-proliferative MTT assay; details: Homo sapiens, NCI-H441, 24 h; for inhibition at 10 µM: read-out: % Growth inhibition ± SEM H441; for IC50: read-out: IC50 (µM) ± SEM H441, MTT, 24 h, n = 3
Method: The compounds were added at a single concentration (10 µM) and the cultures were incubated for 24 h, then the per cent growth inhibition (%GI) was calculated.

[9] = target: SYK (Homo sapiens, UniProt P43405); assay: Kinase selectivity profiling, Z'-LYTE FRET
[10] = target: CDK1 (Homo sapiens, UniProt P06493); assay: Kinase selectivity profiling, Z'-LYTE FRET
[11] = target: LCK (Homo sapiens, UniProt P06239); assay: Kinase selectivity profiling, Z'-LYTE FRET
[12] = target: EGFR (Homo sapiens, UniProt P00533); assay: EGFR kinase assay (PGT-coated 96-well plates); type: biochemical; details: read-out: IC50 (nM) ± SEM EGFR
Method: (§2) The EGFR kinase assay was carried out in 96-well plates coated with PGT (poly l-glutamic acid l-tyrosine, 4:1, Sigma Aldrich, St. Louis, MO) as previously described. IC50 values were calculated using GraphPad Prism 5. Each experiment was carried out at least three times. The VEGFR-2 kinase assay was carried out in 96-well streptavidin coated plate using recombinant human VEGFR-2/KDR ELISA kit according to manufacturer’s instructions.

[13] = target: T1, recombinant human VEGFR-2/KDR (Homo sapiens, UniProt P35968); assay: VEGFR-2 kinase assay (VEGFR-2/KDR ELISA kit); type: biochemical; details: read-out: IC50 (nM) ± SEM VEGFR-2
T1 construct: purchased
Method: as §2

[14] = target: ROCK1 (Homo sapiens, UniProt Q13464); assay: Kinase selectivity profiling, Z'-LYTE FRET
[15] = test system: A549 cells; assay: Annexin V-FITC/PI apoptosis assay; type: cell-based, human; details: A549, 5 μM, 24 h; control 5.4% (10b), […] (10d)
Method: Figure 7. Apoptotic effect of compounds 10b and 10d on A549 cells. (A) Representative cytograms of apoptotic A549 cells stimulated with 0 (control), 2.5 or 5 μM 10b or 10d, for 24 h. The lower-right (annexin V + PI- cells) and the upper-right (annexin V + PI + cells) quadrants show early and late apoptotic cells, and the lower-left (annexin V-PI- cells) and the upper-left ([…]) quadrants represent viable and necrotic cells, respectively. (B) Quantification of annexin V-positive apoptotic cells upon stimulation with 10b or 10d. The values are the means ± SEM of three different experiments. *p < 0.05 and *p < 0.01 indicate significant differences compared with control.
as §1

ABL1, sequence (P00519 whole entry): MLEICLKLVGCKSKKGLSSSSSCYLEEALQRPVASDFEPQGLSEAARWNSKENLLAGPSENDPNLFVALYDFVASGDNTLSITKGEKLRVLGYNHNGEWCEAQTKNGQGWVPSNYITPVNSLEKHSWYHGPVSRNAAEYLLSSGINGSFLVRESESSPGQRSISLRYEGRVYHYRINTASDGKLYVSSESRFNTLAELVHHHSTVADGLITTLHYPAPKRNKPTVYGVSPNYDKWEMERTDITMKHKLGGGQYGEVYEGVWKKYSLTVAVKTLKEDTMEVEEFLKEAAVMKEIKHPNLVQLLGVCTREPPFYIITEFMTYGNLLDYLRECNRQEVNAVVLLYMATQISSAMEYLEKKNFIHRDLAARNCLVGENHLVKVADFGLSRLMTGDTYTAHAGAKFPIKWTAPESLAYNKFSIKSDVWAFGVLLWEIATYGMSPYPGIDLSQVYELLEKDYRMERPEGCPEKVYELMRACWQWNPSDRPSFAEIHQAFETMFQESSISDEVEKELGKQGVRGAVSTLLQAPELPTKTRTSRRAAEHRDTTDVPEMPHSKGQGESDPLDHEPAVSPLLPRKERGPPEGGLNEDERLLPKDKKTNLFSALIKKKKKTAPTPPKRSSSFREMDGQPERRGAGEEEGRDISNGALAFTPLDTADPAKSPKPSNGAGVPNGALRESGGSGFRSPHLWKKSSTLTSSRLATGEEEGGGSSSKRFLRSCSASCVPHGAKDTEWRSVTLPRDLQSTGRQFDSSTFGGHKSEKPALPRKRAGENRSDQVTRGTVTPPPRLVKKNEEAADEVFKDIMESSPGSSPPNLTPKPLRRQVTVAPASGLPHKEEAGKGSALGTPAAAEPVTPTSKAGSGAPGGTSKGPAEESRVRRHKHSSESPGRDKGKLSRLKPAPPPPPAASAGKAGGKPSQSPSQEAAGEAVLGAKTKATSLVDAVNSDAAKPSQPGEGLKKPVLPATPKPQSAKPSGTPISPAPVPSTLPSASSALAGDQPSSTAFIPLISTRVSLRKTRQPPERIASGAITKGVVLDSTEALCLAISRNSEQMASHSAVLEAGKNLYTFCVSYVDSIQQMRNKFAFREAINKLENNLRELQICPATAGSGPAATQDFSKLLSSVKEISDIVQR
LCK, sequence (P06239 whole entry): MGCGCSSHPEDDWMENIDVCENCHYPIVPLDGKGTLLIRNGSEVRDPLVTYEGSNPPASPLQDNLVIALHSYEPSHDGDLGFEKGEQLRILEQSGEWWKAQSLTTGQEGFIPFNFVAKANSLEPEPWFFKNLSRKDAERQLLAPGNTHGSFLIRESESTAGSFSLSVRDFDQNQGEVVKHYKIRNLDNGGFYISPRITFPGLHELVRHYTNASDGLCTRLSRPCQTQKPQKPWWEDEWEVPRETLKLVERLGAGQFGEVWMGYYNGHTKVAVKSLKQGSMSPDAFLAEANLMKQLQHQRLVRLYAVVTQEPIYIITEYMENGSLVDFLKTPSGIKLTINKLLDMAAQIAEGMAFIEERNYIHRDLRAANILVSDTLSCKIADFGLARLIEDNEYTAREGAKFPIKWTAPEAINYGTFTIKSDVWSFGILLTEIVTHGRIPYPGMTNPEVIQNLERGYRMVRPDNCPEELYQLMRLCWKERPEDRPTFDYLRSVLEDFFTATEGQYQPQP
CDK1, sequence (P06493 whole entry): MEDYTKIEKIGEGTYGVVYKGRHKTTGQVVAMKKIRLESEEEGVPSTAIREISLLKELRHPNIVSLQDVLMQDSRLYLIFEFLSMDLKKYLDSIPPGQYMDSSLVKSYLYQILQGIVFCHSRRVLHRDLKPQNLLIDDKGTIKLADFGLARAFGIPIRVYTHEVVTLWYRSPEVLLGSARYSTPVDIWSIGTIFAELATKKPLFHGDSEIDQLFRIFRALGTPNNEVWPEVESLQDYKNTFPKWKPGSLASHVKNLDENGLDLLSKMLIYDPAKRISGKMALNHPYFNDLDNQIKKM
CDK1, sequence (P14635 whole entry partner): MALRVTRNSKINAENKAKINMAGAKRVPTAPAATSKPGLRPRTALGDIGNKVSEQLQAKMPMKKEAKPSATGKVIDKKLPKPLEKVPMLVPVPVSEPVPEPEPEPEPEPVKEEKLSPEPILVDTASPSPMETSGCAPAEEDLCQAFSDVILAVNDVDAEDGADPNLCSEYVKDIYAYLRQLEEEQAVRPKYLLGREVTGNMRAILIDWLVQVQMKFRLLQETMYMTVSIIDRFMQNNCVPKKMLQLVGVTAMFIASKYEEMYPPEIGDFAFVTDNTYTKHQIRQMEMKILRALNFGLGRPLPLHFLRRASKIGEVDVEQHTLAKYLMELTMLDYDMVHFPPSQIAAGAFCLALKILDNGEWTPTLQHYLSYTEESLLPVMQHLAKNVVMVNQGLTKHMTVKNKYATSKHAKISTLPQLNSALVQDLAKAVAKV
EPHB2, sequence (P29323 19-1055): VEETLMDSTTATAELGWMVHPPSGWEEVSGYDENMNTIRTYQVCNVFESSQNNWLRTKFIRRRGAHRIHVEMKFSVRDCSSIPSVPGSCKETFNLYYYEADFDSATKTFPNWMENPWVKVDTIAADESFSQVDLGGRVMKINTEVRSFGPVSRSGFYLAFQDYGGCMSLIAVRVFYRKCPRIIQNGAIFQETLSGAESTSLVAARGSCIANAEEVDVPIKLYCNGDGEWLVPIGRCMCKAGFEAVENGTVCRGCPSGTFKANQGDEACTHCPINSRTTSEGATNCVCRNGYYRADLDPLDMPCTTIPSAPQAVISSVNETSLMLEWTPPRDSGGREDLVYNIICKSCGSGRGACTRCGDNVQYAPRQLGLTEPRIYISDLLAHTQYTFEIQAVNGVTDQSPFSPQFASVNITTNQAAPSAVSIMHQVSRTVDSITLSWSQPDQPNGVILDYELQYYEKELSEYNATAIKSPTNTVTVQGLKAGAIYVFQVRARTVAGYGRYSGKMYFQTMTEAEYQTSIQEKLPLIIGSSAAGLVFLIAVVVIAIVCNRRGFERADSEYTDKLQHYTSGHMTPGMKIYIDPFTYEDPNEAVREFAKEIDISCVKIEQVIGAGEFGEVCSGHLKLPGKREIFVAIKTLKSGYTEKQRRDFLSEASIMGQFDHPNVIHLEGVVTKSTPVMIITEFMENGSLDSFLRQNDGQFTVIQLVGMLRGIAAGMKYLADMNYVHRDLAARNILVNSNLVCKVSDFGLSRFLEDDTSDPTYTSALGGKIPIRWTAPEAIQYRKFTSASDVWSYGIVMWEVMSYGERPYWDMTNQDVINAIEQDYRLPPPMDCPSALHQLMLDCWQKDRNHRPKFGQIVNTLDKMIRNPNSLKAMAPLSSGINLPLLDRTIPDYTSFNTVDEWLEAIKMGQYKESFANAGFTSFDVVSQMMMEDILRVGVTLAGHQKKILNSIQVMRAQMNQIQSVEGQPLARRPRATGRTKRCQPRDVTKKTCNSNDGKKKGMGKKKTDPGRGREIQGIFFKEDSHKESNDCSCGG
EGFR, sequence (P00533 25-1210): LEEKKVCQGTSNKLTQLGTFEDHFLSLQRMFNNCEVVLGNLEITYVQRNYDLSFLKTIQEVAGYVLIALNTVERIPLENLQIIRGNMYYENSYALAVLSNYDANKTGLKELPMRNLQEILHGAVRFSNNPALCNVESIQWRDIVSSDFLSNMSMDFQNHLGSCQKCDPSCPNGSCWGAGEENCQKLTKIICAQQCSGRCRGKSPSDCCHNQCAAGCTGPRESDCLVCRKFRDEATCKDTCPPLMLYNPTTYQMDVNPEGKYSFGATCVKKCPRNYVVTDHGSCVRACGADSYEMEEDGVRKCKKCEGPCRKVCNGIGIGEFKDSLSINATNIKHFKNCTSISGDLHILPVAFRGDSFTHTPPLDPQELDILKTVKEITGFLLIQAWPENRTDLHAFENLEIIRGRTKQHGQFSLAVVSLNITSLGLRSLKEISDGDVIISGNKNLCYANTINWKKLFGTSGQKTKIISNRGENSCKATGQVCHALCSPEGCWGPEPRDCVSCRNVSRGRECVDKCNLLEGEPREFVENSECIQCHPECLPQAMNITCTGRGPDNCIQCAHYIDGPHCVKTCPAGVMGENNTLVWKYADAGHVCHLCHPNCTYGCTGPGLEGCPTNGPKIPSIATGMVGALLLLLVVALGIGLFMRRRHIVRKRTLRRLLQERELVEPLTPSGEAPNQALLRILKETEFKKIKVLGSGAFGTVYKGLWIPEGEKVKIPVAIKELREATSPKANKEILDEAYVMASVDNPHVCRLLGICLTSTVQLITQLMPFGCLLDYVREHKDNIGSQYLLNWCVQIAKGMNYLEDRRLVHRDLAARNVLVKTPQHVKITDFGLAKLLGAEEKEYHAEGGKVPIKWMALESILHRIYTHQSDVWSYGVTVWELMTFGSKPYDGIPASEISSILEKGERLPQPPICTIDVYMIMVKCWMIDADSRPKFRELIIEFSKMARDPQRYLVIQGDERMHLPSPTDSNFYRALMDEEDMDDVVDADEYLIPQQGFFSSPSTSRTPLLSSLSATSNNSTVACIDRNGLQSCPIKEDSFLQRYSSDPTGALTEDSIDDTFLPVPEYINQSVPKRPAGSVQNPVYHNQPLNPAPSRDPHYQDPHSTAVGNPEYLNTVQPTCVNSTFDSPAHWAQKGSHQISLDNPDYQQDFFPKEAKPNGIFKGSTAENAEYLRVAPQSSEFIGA
AKT1, sequence (P31749 whole entry): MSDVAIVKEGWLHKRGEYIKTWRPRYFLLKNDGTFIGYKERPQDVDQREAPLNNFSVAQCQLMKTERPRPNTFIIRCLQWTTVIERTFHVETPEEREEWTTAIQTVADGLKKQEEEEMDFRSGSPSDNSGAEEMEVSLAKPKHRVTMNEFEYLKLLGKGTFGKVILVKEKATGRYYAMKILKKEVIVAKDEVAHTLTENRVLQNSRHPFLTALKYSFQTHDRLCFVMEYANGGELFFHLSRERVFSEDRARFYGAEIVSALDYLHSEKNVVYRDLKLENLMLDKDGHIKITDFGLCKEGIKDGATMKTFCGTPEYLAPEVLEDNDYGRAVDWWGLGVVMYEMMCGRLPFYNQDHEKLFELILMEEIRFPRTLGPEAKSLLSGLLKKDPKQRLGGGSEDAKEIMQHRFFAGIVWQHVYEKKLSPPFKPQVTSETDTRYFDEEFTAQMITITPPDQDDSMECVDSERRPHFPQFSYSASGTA

IC50 [1] | IC50 [2] | IC50 [3] | IC50 [7] | IC50 [8] | IC50 [9] | IC50 [10] | IC50 [11] | IC50 [12] | IC50 [13] | IC50 [14] | SMILES | IC50 [4] | Mean tumour selectivity [4] | cells at G2/M phase [5] | A549 cancer cell migration [6] | inhibition at 10 µM [8] | annexin V-positive apoptotic cells [15]
> 2 µM | > 2000 nM | 0.816 ± 0.038 µM | > 2 µM | 4.8 ± 0.1 µM | 1.12 ± 0.022 µM | 0.31 ± 0.012 µM | > 2 µM | 40.7 ± 1 nM | 78.4 ± 1.5 nM | > 2 µM | CCOC(=O)c1sc(N2N=C(c3ccc(Cl)cc3Cl)CC2c2ccc(OC)cc2)nc1C (stereo not shown) [Compound 10b, Ethyl-2-(3-(2,4-dichlorophenyl)-5-(4-methoxyphenyl)-4,5-dihydro-1H-pyrazol-1-yl)-4-methylthiazole-5-carboxylate] | 72.4 ± 7.2 µM | 16.1 | 29.2% | effective in reducing the cancer cell migration | 79.1 ± 2.6% | 16.5%
> 2 µM | > 2000 nM | 0.702 ± 0.024 µM | > 2 µM | 3.8 ± 0.5 µM | 0.87 ± 0.031 µM | 0.245 ± 0.007 µM | > 2 µM | 32.5 ± 2.2 nM | 43 ± 2.4 nM | > 2 µM | COc1ccc(C2CC(c3ccc(Cl)cc3Cl)=NN2c2nc(C)c(C(=O)Nc3ccccc3)s2)cc1OC (stereo not shown) [Compound 10d, 2-(3-(2,4-Dichlorophenyl)-5-(3,4-dimethoxyphenyl)-4,5-dihydro-1H-pyrazol-1-yl)-4-methyl-N-phenylthiazole-5-carboxamide] | 51.4 ± 3.5 µM | 15.3 | 33.92% | effective in reducing the cancer cell migration | 89.2 ± 3.9% | 28.5%
